Data as given in PMC5410595, “In Vitro and In Silico Antidiabetic and Antimicrobial Evaluation of Constituents from Kickxia ramosissima (Nanorrhinum ramosissimum)” (Frontiers in Pharmacology, 2017).
Entries after “also recorded” stand apart in the source; their conditions may differ.

What was measured:
[1] = tested on: formation of AGEs (BSA-MGO); assay: BSA-MGO antiglycation assay; assay type: biochemical; settings: for Protein glycation BSA-MGO % inhibition: isolated constituents, highest test concentration; for IC50: read-out: Protein glycation BSA-MGO IC50
Experimental: (§1) The BSA-glucose and BSA-MGO antiglycation assays were performed as reported before ([Amin et al., 2016]). The test protocol is attached as Supplementary Material ([Amin et al., 2016]).
60 Protein-glyoxal interaction (BSA-MGO assay)
61 The antiglycation assay using methylgloxyl (MGO) was performed according to the method
62 developed by Peng et al. (2007) with slight modifications. Briefly, methylglyoxal (135 μL, 5.75
63 mM) was incubated with BSA (135 μL, 10 mg/mL) dissolved in phosphate buffer (50 mM, pH
64 7.4, containing sodium azide (0.02%), added to prevent bacterial growth) and test compounds
65 (30 μL) at different final concentrations (1.5 – 0.023 mM) in 100% DMSO. The reaction
66 mixture was incubated at 37 °C for one week. Control solutions only contained methylglyoxal
67 (135 μL, 5.75 mM) BSA (135 μL, 1 0mg/mL) and DMSO (100%) only. The blank samples of
68 similar composition were also prepared simultaneously and kept at 4 °C for one week. The
70 440) due to formation of AGEs was monitored by spectrofluorometry (Tecan® Infinite M200,
71 Giessen, The Netherlands). Aminoguanidine (3-0.046 mM final concentration) was used as
72 reference compound. The AGEs inhibition was calculated as
74 % AGEs inhibition = [1–(S–Sb)/(C–Cb)] x 100
76 where S and C were fluorescence of test samples (in DMSO) and control (test mixtures
77 containing only DMSO) incubated at 37 °C, and where Sb and Cb were fluorescence for
78 samples incubated at 4 °C.
79 using Sigma plot® 13.0.

[2] = tested on: formation of AGEs (BSA-glucose); assay: BSA-glucose antiglycation assay; assay type: biochemical; settings: for Protein glycation BSA-Glucose % inhibition: isolated constituents, at the highest test concentration of 3 mM; for IC50: read-out: Protein glycation BSA-Glucose IC50
Experimental: as §1
28 Antiglycation assay (BSA-Glucose assay)
29 In the BSA-glucose assay the prevention of AGEs formation is investigated by determining the
30 fluorescence of the complex formed after incubation of a sugar (glucose) with protein (BSA) in
31 the presence or absence of test compounds. The antiglycation assay was performed according to
32 the method developed by Matsuura et al. (2002) with minor modifications. […]
37 DMSO. The mixtures were incubated at 60°C for 48 h. After incubation, the reaction mixture
38 was allowed to cool down at room temperature. Then 100 µL reaction mixture was transferred
39 to a new plastic tube (1.5 mL) and the reaction was stopped by adding 10 μL of 100% (w/v)
40 trichloroacetic acid (TCA) and to precipitate proteins. The TCA-added mixture was kept at 4°C
41 for 10 min, followed by centrifugation (14000 rpm, 4 °C, 4 min). The supernatant containing
42 unreacted D-glucose, test sample and interfering substances was discarded, whereas the
44 8.1 mM Na2HPO4, 2.68 mM KCl, 1.47 mM KH2PO4, […]). The change in fluorescence
46 of AGEs was monitored by spectrofluorometry (Tecan™ Infinite M200, Giessen, The
47 Netherlands). In order to eliminate interference by autofluorescence of the test compounds, a
48 parallel incubation of test substance with BSA at 60°C without D-glucose was performed for all
50 final concentration) were used as reference compounds.
51 The AGEs inhibition was calculated as
55 where F is the fluorescence intensity.
56 calculated using Sigma plot® 13.0.

[3] = tested on: Trypanosoma cruzi, Tulahuen LacZ, clone C4; assay: Antimicrobial screening panel: Trypanosoma cruzi; assay type: cell-based
Experimental: (§2) Fractions and isolated compounds were evaluated for antimicrobial activity in an integrated screening panel, also including the human MRC-5 cell line to assess selectivity, as reported before ([Cos et al., 2006]; [Mesia et al., 2008]; [Baldé et al., 2010]; [Amin et al., 2016]).

Plasmodium falciparum K1 = assay: Antimicrobial screening panel: Plasmodium falciparum; assay type: cell-based
Experimental: as §2

Staphylococcus aureus = assay: Antimicrobial screening panel: Staphylococcus aureus; assay type: cell-based
Experimental: as §2

[4] = tested on: MRC-5, human fetal lung fibroblasts
Experimental: as §2

Compound | Protein glycation BSA-MGO % inhibition [1] | Protein glycation BSA-Glucose % inhibition [2] | IC50 [1] | IC50 [2] | other results
CO[C@H]1C[C@@]2(O)[C@H](O)[C@@H](O)[C@](C)(OC)[C@H]2[C@@H](OC)O1 [Compound 1, Kickxiasine] | 31% | 26% | – | – | –
CC1(O)CCC2C(C(=O)O)=COC(OC3OC(CO)C(O)C(O)C3O)C21 (stereo not shown) [Compound 2, Mussaenosidic acid] | 23% | 35% | – | – | –
COC(=O)C1=COC(OC2OC(CO)C(O)C(O)C2O)C2C1CCC2(C)O (stereo not shown) [Compound 3, Mussaenoside] | 24% | 28% | – | – | –
COc1ccc(-c2cc(=O)c3c(O)c(OC)c(O)cc3o2)cc1 [Compound 5, Pectolinarigenin] | – | – | 190 µM | 790 µM | IC50 [3]: 32 µM; IC50 (Plasmodium falciparum K1): 41.8 µM; IC50 (Staphylococcus aureus): 49.8 µM; cytotoxicity against MRC-5 cells [4]: not cytotoxic
COc1ccc(-c2cc(=O)c3c(O)c(OC)c(O[C@@H]4O[C@H](CO[C@@H]5O[C@@H](C)[C@H](O)[C@@H](O)[C@H]5O)[C@@H](O)[C@H](O)[C@H]4O)cc3o2)cc1 [Compound 6, Pectolinarin] | – | – | 130 µM | 2290 µM | –
COC(=O)c1ccc(O)cc1 [Compound 7, 4-Hydroxy benzoic acid methyl ester] | did not present any inhibition; also recorded: no activity | did not present any inhibition; also recorded: no activity | – | – | –
